From patent US7057052B2, “Heterocyclic quinones as pharmaceutical agents” (Duke University, priority 2002, dated 2006) come the findings set out here.

This assay has as its target T1, Cdc25B (Homo sapiens, UniProt P30305).
T1 sequence (P30305 1-580): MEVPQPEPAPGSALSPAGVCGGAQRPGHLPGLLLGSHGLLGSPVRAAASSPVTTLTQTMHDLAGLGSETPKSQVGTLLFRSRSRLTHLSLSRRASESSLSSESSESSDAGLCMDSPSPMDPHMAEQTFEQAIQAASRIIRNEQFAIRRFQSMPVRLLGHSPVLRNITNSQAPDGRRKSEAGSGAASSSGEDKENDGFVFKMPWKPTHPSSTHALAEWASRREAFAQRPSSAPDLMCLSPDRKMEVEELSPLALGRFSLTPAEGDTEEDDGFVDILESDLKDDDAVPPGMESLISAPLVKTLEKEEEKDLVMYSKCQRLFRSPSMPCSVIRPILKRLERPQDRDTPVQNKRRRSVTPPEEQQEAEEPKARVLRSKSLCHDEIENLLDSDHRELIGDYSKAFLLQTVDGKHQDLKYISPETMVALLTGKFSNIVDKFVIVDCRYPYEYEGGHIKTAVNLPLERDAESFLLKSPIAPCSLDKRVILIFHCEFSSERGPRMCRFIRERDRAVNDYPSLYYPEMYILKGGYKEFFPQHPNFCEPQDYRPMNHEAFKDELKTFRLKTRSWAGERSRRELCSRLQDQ
Kind of assay: Cdc25B phosphatase inhibition (50 μM screen, 3 pt. and 8 pt. IC-50). Format: biochemical. The settings on record: Cdc25B; 3 pt. IC-50 using 1, 7 and 50 μM; read-out: IC50 (3 pt). The procedure:
Using procedures known to those skilled in the art, the compounds listed in Table 3 were screened against Cdc25A, Cdc25B, and Cdc25C at 50 μM. […] To analyze these effects further, the compounds were then screened against Cdc25B in a 3 pt. IC-50, using 1, 7 and 50 μM. Several of the compounds were also screened with an 8 pt. IC-50 process, using 0.1–10 μM, allowing determination of Hill slopes.

Each structure is given as a SMILES string.

As usually defined, the IC50 is the point on the concentration scale where inhibition reaches its midpoint. On to `Cc1ccc2c(C3=C(O)C(=O)C(c4c(C(C)(C)C)[nH]c5ccccc45)=C(O)C3=O)c[nH]c2c1` [10D, 2-(2-tert-butyl-1H-indol-3-yl)-3,6-dihydroxy-5-(6-methyl-1H-indol-3-yl)-[1,4]-benzoquinone], for which the half-inhibitory concentration (IC50) was 5.3 µM.

For `COc1ccc2[nH]cc(C3=C(O)C(=O)C(c4c(C(C)(C)C)[nH]c5ccccc45)=C(O)C3=O)c2c1` [9H, 2-(2-tert-butyl-1H-indol-3-yl)-3,6-dihydroxy-5-(5-methoxyl-1H-indol-3-yl)-[1,4]-benzoquinone], the IC50 was 80.3 µM. Consider `COc1cccc2[nH]cc(C3=C(O)C(=O)C(c4c(C(C)(C)C)[nH]c5ccccc45)=C(O)C3=O)c12` [9E, 2-(2-tert-butyl-1H-indol-3-yl)-3,6-dihydroxy-5-(4-methoxy-1H-indol-3-yl)-[1,4]-benzoquinone], for which the half-maximal inhibitory concentration (IC50) was found to be 13.7 µM.

As to `Cc1[nH]c2ccccc2c1C1=C(O)C(=O)C(c2c(C(C)(C)C)[nH]c3ccccc23)=C(O)C1=O` [8H, 2-(2-tert-butyl-1H-indol-3-yl)-3,6-dihydroxy-5-(2-methyl-1H-indol-3-yl)-[1,4]-benzoquinone], the IC50 was 5.8 µM. For the compound `Cc1cccc2c(C3=C(O)C(=O)C(c4c(C(C)(C)C)[nH]c5ccccc45)=C(O)C3=O)c[nH]c12` [10E, 2-(2-tert-butyl-1H-indol-3-yl)-3,6-dihydroxy-5-(7-methyl-1H-indol-3-yl)-[1,4]-benzoquinone], the 50% inhibitory concentration (IC50) came out at 4.8 µM. Consider `CC(C)(C)c1[nH]c2ccccc2c1C1=C(O)C(=O)C(c2c[nH]c3cc(F)ccc23)=C(O)C1=O` [10C, 2-(2-tert-butyl-1H-indol-3-yl)-3,6-dihydroxy-5-(6-fluoro-1H-indol-3-yl)-[1,4]-benzoquinone], for which the 50% inhibitory concentration (IC50) stood at 5.3 µM. As for `Cc1[nH]c2ccc(Cl)cc2c1C1=C(O)C(=O)C(c2c(C(C)(C)C)[nH]c3ccccc23)=C(O)C1=O` [11A, 2-(2-tert-butyl-1H-indol-3-yl)-3,6-dihydroxy-5-(2-methyl-5-chloro-1H-indol-3-yl)-[1,4]-benzoquinone], the figure is 8.4 µM; as for `Cc1ccc2[nH]c(C)c(C3=C(O)C(=O)C(c4c(C(C)(C)C)[nH]c5ccccc45)=C(O)C3=O)c2c1` [10G, 2-(2-tert-butyl-1H-indol-3-yl)-3,6-dihydroxy-5-(2,5-dimethyl-1H-indol-3-yl)-[1,4]-benzoquinone], 14.6 µM. For the compound `Cn1cc(C2=C(O)C(=O)C(c3c(C(C)(C)C)[nH]c4ccccc34)=C(O)C2=O)c2ccccc21` [8G, 2-(2-tert-butyl-1H-indol-3-yl)-3,6-dihydroxy-5-(1-methyl-1H-indol-3-yl)-[1,4]-benzoquinone], the IC50 was found to be 12 µM. Take `Cc1[nH]c2ccccc2c1C1=C(O)C(=O)C(c2c(C)[nH]c3ccccc23)=C(O)C1=O` [11C, 2,5-dihydroxy-3,6-bis(2-methyl-1H-indol-3-yl)l-[1,4]-benzoquinone]: the IC50 is 15.7 µM. `Cc1[nH]c2ccccc2c1C1=C(O)C(=O)c2cccc(O)c2C1=O` [11D, 2,5-dihydoxy-3-(2-methyl-1H-indol-3-yl)-[1,4]naphthoquinone]: the IC50 amounted to 18 µM. As to `CC(C)(C)c1[nH]c2ccccc2c1C1=C(Cl)C(=O)C(c2c[nH]c3c(C(C)(C)C)cccc23)=C(O)C1=O` [8D, 2-(2-tert-butyl-1H-indol-3-yl)-5-(7-tert-butyl-1H-indol-3-yl)-3-chloro-6-hydroxy-[1,4]-benzoquinone], the half-maximal inhibitory concentration (IC50) came to 5.8 µM.

Consider `CC(C)(C)c1[nH]c2ccccc2c1C1=C(O)C(=O)C(c2c[nH]c3c(C(C)(C)C)cccc23)=C(O)C1=O` [10F, 2-(2-tert-butyl-1H-indol-3-yl)-3,6-dihydroxy-5-(7-tert-butyl-1H-indol-3-yl)-[1,4]-benzoquinone], for which the IC50 came to 0.9 µM.

In the case of `CC(C)(C)c1[nH]c2ccccc2c1C1=C(O)C(=O)C(c2c[nH]c3ccc(F)cc23)=C(O)C1=O` [9G, 2-(2-tert-butyl-1H-indol-3-yl)-3,6-dihydroxy-5-(5-fluoro-1H-indol-3-yl)-[1,4]-benzoquinone], the IC50 turned out to be 8.7 µM.

`CC(C)(C)c1[nH]c2ccccc2c1C1=C(O)C(=O)C(c2c(-c3ccccc3)[nH]c3ccccc23)=C(O)C1=O` [9D, 2-(2-tert-butyl-1H-indol-3-yl)-3,6-dihydroxy-5-(2-phenyl-1H-indol-3-yl)-[1,4]-benzoquinone]: the IC50 was 6.1 µM. For `CC(C)(C)c1[nH]c2ccccc2c1C1=C(O)C(=O)C(c2c[nH]c3ccccc23)=C(O)C1=O` [8F, 2-(2-tert-butyl-1H-indol-3-yl)-3,6-dihydroxy-5-(1H-indol-3-yl)-[1,4]-benzoquinone], the IC50 is 11.2 µM.

With `Cc1ccc2[nH]cc(C3=C(O)C(=O)C(c4c(C(C)(C)C)[nH]c5ccccc45)=C(O)C3=O)c2c1` [10B, 2-(2-tert-butyl-1H-indol-3-yl)-3,6-dihydroxy-5-(5-methyl-1H-indol-3-yl)-[1,4]-benzoquinone], the IC50 is 7.2 µM.

Turning to `CC(C)(C)c1[nH]c2ccccc2c1C1=C(O)C(=O)C(c2c[nH]c3ccc(OCc4ccccc4)cc23)=C(O)C1=O` [10A, 2-(2-tert-butyl-1H-indol-3-yl)-3,6-dihydroxy-5-(5-benzyloxy-1H-indol-3-yl)-[1,4]-benzoquinone], the IC50 was 0.6 µM. Consider `CC(C)(C)c1[nH]c2ccccc2c1C1=C(O)C(=O)C(c2c(C(C)(C)C)[nH]c3ccccc23)=C(O)C1=O` [9C, 2-(2-tert-butyl-1H-indol-3-yl)-3,6-dihydroxy-5-(2-tert-butyl-1H-indol-3-yl)-[1,4]-benzoquinone], for which the half-maximal inhibitory concentration (IC50) is 5.1 µM. As for `CC(C)(C)c1[nH]c2ccccc2c1C1=C(O)C(=O)C(c2c(C3CC3)[nH]c3ccccc23)=C(O)C1=O` [9A, 2-(2-tert-butyl-1H-indol-3-yl)-3,6-dihydroxy-5-(2-cyclopropyl-1H-indol-3-yl)-[1,4]-benzoquinone], the IC50 was 5.6 µM. Take `CC(C)(C)c1[nH]c2ccccc2c1C1=C(O)C(=O)C(c2c(C(C)(C)C)[nH]c3ccccc23)=C(Cl)C1=O` [11E, 2,5-bis(2-tert-butyl-1H-indol-3-yl)-3-chloro-6-hydroxy-[1,4]-benzoquinone]: the 50% inhibitory concentration (IC50) turned out to be 22.9 µM. The value for `Cn1cc(C2=C(O)C(=O)C(c3ccccc3)=C(O)C2=O)c2ccccc21` [11B, 2,5-dihydroxy-3-(1-methyl-1H-indol-3-yl)-6-phenyl-[1,4]-benzoquinone] was 7.9 µM; that for `CC(C)c1[nH]c2ccccc2c1C1=C(O)C(=O)C(c2c(C(C)(C)C)[nH]c3ccccc23)=C(O)C1=O` [9B, 2-(2-tert-butyl-1H-indol-3-yl)-3,6-dihydroxy-5-(2-isopropyl-1H-indol-3-yl)-[1,4]-benzoquinone] was 5 µM. Turning to `CC(C)(C)c1[nH]c2ccccc2c1C1=C(Cl)C(=O)C(c2c[nH]c3ccccc23)=C(O)C1=O` [11F, 2-(2-tert-butyl-1H-indol-3-yl)-5-(1H-indol-3-yl)-3-chloro-6-hydroxy-[1,4]-benzoquinone], the half-inhibitory concentration (IC50) was 49.9 µM. For the compound `COc1ccc2[nH]c(C)c(C3=C(O)C(=O)C(c4c(C(C)(C)C)[nH]c5ccccc45)=C(O)C3=O)c2c1` [10H, 2-(2-tert-butyl-1H-indol-3-yl)-3,6-dihydroxy-5-(2-methyl-5-methoxy-1H-indol-3-yl)-[1,4]-benzoquinone], the 50% inhibitory concentration (IC50) is 11.5 µM. Turning to `CC(C)(C)c1[nH]c2ccccc2c1C1=C(Cl)C(=O)C(c2c(-c3ccccc3)[nH]c3ccccc23)=C(O)C1=O` [11H, 2-(2-tert-butyl-1H-indol-3-yl)-5-(2-phenyl-1H-indol-3-yl)-3-chloro-6-hydroxy-[1,4]-benzoquinone], the half-maximal inhibitory concentration (IC50) came out at 6.7 µM. In the case of `C=CC(C)(C)c1[nH]c2ccccc2c1C1=C(O)C(=O)C(c2c[nH]c3c(CC=C(C)C)cccc23)=C(O)C1=O` [8E, DAQ-B1, reference compound], the IC50 amounted to 0.9 µM. Consider `Cc1cccc2c(C3=C(O)C(=O)C(c4c(C(C)(C)C)[nH]c5ccccc45)=C(Cl)C3=O)c[nH]c12` [11G, 2-(2-tert-butyl-1H-indol-3-yl)-5-(7-methyl-1H-indol-3-yl)-3-chloro-6-hydroxy-[1,4]-benzoquinone], for which the IC50 turned out to be 33.8 µM.

Turning to `CC(C)(C)c1[nH]c2ccccc2c1C1=C(O)C(=O)C(c2c[nH]c3cccc(OCc4ccccc4)c23)=C(O)C1=O` [9F, 2-(2-tert-butyl-1H-indol-3-yl)-3,6-dihydroxy-5-(4-benzyloxy-1H-indol-3-yl)-[1,4]-benzoquinone], the 50% inhibitory concentration (IC50) came out at 2.3 µM.
